Experiment: PARIS III toxicological and environmental analysis of solvents (HTPI, EI)
Design: species or system human
Conditions: binary solvent with water
Description: The examined chemical compounds are 2-trifluoromethyl-N′-[5-nitro-2-oxo-1,2-dihydro-3H-indol-3-ylidene]benzohydrazide (1), 3-Amino-N′-[5-nitro-2-oxo-1,2-dihydro-3H-indol-3-ylidene]benzohydrazide (2), and 3-nitro-N′-[5-nitro-2-oxo-1,2-dihydro-3H-indol-3-ylidene]benzohydrazide (3). The evaluation of the descriptors defining molecular properties, absorption, metabolism, and toxicity of considered drugs was estimated with the use of ADMETlab 2.0 [9]. The quantitative structure–activity relationship (QSAR) algorithms implemented in used software based on the chemical structures of considered drugs described by SMILES definitions are presented in Figure 1. The method of interpretation and definitions of particular descriptors obtained during the analysis are included in the Results and Discussion sections. The toxicological analysis of solvents was realized with the use of the Solvent Substitution Software Tool, PARIS III [40, 41]. The characteristics of the Human Toxicity Potential by Ingestion (HTPI) of individual solvents and sets of binary solvents analyzed in this work were obtained based on the values of LD50 for particular solvents.
Additionally, the values of the Environmental Index (EI) were also estimated based on a set of eight environmental impact scores, which included, among others, HTPI, terrestrial toxicity potential, and aquatic toxicity potential. In the case of Equation (2), the σj is the weight for considered impact j, the φi,j stands for the value of normalized impact for considered solvent. (2) EIi=∑j=18σjφi,j¯

Compound | % HTPI x1.0 (relative to the pure organic solvent) (x* 0.1) | % HTPI x1.0 (relative to the pure organic solvent) (x* 0.2) | % HTPI x1.0 (relative to the pure organic solvent) (x* 0.3) | % HTPI x1.0 (relative to the pure organic solvent) (x* 0.4) | % HTPI x1.0 (relative to the pure organic solvent) (x* 0.5) | % HTPI x1.0 (relative to the pure organic solvent) (x* 0.6) | % HTPI x1.0 (relative to the pure organic solvent) (x* 0.7) | % HTPI x1.0 (relative to the pure organic solvent) (x* 0.8) | % HTPI x1.0 (relative to the pure organic solvent) (x* 0.9) | % HTPI x1.0 (relative to the pure organic solvent) (x* 1.0)
C[S+](C)[O-] [DMSO, dimethyl sulfoxide] | 37.7% | 55.8% | 67.8% | 76.4% | 83.1% | 87.7% | 91.5% | 95.4% | 97.7% | 100.0%
CN1CCCC1=O [NMP, N-methyl-2-pyrrolidone] | 39.1% | 58.8% | 70.8% | 79.1% | 84.9% | 89.4% | 93.0% | 95.9% | 98.1% | 100.0%
